According to patent US6706663B2, “Herbicidal 3-heterocyclic substituted benzisothiazole and benzisoxazole compounds” (Wyeth, priority 2000, dated 2004):

What was measured:
[1] = tested on: ECHCG (Echinochloa crus-galli); test: Postemergence herbicidal evaluation; format: in vivo, (L.) Beau; conditions: postemergence
Procedure, shortened: (§1)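 Seedlings grown about two weeks in flats, sprayed, then kept under standard greenhouse care. Rated visually 4–5 weeks after treatment on a 0–9 scale (stand, vigour, malformation, size, chlorosis, overall appearance) relative to untreated control; repeat tests averaged.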

[2] = tested on: TRZAWR (Wheat, Winter, cv Riband); test: Preemergence herbicidal evaluation; format: in vivo, Triticum aestivum; conditions: rated 4-5 weeks after treatment
Procedure, shortened: (§2)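 Applied before emergence as an aqueous acetone spray over seeded soil. Read-out: 0–9 visual rating covering plant stand, vigor, size, chlorosis, malformation and overall appearance compared with control, taken 4–5 weeks after spraying.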

[3] = tested on: ZEAMX (Corn, Field); test: Postemergence herbicidal evaluation; format: in vivo, Zea mays, L.; conditions: postemergence
Procedure, shortened: as §1

[4] = tested on: CASOB (Cassia obtusifolia); test: Postemergence herbicidal evaluation; format: in vivo, L.; conditions: postemergence
Procedure, shortened: as §1

[5] = tested on: AMBEL (Ambrosia artemisifolia); test: Postemergence herbicidal evaluation; format: in vivo, L.; conditions: postemergence
Procedure, shortened: as §1

[6] = tested on: CHEAL (Chenopodium album); test: Postemergence herbicidal evaluation; format: in vivo, L.; conditions: postemergence
Procedure, shortened: as §1

[7] = tested on: ORYSAT (Rice, Tebonnet); test: Flooded paddy, post-transplant rice tolerance; format: in vivo, Oryza sativa, (L.) Tebonnet; conditions: flooded paddy, post-transplant rice, rated 3-4 weeks after treatment, 0-9 rating scale
Procedure, shortened: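 Seedlings aged ten days are transplanted in pairs into undrained pots of silt loam, which are then flooded to a depth of 1.5 to 3 cm. After herbicide application the pots are kept in a greenhouse with the flood maintained. Plants are rated 0-9 by visual comparison with controls.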

[8] = tested on: ABUTH (Abutilon theophrasti); test: Preemergence herbicidal evaluation; format: in vivo, Medic.; conditions: rated 4-5 weeks after treatment
[9] = tested on: SAGPY (Sagittaria pygmaea); test: Flooded paddy, preemergence weed control; format: in vivo, L.; conditions: rated 3-4 weeks after treatment, 0-9 rating scale
Procedure, shortened: (§3)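 Plants were established from seed or propagating organs in flooded silt loam, with the water surface held 1.5 to 3 cm above the soil for the entire experiment. Injury was assessed visually against a control and given a 0-9 score.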

[10] = tested on: ORYSAT (Rice, Tebonnet); test: Postemergence herbicidal evaluation; format: in vivo, Oryza sativa, (L.) Tebonnet; conditions: postemergence
Procedure, shortened: as §1

[11] = tested on: CASOB (Cassia obtusifolia); test: Preemergence herbicidal evaluation; format: in vivo, L.; conditions: rated 4-5 weeks after treatment
Procedure, shortened: as §2

[12] = tested on: AMBEL (Ambrosia artemisifolia); test: Preemergence herbicidal evaluation; format: in vivo, L.; conditions: rated 4-5 weeks after treatment
Procedure, shortened: as §2

[13] = tested on: CHEAL (Chenopodium album); test: Preemergence herbicidal evaluation; format: in vivo, L.; conditions: rated 4-5 weeks after treatment
Procedure, shortened: as §2

[14] = tested on: ORYSAT (Rice, Tebonnet); test: Preemergence herbicidal evaluation; format: in vivo, Oryza sativa, (L.) Tebonnet; conditions: rated 4-5 weeks after treatment
[15] = tested on: ECHORC (Echinochloa oryzoides); test: Flooded paddy, preemergence weed control; format: in vivo, Echinochloa oryzoides (Ard.) Fritsch.; conditions: rated 3-4 weeks after treatment, 0-9 rating scale
Procedure, shortened: as §3

[16] = tested on: ABUTH (Abutilon theophrasti); test: Postemergence herbicidal evaluation; format: in vivo, Medic.; conditions: postemergence
Procedure, shortened: as §1

[17] = tested on: TRZAWR (Wheat, Winter, cv Riband); test: Postemergence herbicidal evaluation; format: in vivo, Triticum aestivum; conditions: postemergence
Procedure, shortened: as §1

[18] = tested on: IPOHE (Ipomoea hederacea); test: Postemergence herbicidal evaluation; format: in vivo, (L.) Jacq.; conditions: postemergence
Procedure, shortened: as §1

Compound: Cn1c(C(F)(F)F)cc(=O)n(-c2ccc3snc(C4OCC(CCl)O4)c3c2)c1=O (stereo not drawn) [Compound 72, 3-[3-[4-(chloromethyl)-1,3-dioxolan-2-yl]-1,2-benzisothiazol-5-yl]-1-methyl-6-(trifluoromethyl)uracil]
- ECHCG herbicidal rating ([1]; rate 0.0320 kg/ha): 3.0
- ECHCG herbicidal rating ([1]; rate 0.0620 kg/ha): 3.0
- Preemergence herbicidal rating TRZAWR ([2]; Rate 0.0620 kg/ha): 7.0
- Preemergence herbicidal rating TRZAWR ([2]; Rate 0.1250 kg/ha): 9.0
- Preemergence herbicidal rating TRZAWR ([2]; Rate 0.2500 kg/ha): 9.0
- ZEAMX herbicidal rating ([3]; rate 0.0320 kg/ha): 5.0
- ZEAMX herbicidal rating ([3]; rate 0.0620 kg/ha): 5.0
- CASOB herbicidal rating ([4]; rate 0.0320 kg/ha): 5.0
- CASOB herbicidal rating ([4]; rate 0.0620 kg/ha): 5.0
- AMBEL herbicidal rating ([5]; rate 0.0320 kg/ha): 9.0
- AMBEL herbicidal rating ([5]; rate 0.0620 kg/ha): 9.0
- CHEAL herbicidal rating ([6]; rate 0.0320 kg/ha): 9.0
- CHEAL herbicidal rating ([6]; rate 0.0620 kg/ha): 9.0
- herbicidal rating, ORYSAT (rice tolerance) ([7]; rate 0.0080 kg/ha): 0.0
- herbicidal rating, ORYSAT (rice tolerance) ([7]; rate 0.0320 kg/ha): 7.0
- herbicidal rating, ORYSAT (rice tolerance) ([7]; rate 0.1250 kg/ha): 8.0
- Preemergence herbicidal rating ABUTH ([8]; Rate 0.0620 kg/ha): 9.0
- Preemergence herbicidal rating ABUTH ([8]; Rate 0.1250 kg/ha): 9.0
- Preemergence herbicidal rating ABUTH ([8]; Rate 0.2500 kg/ha): 9.0
- herbicidal rating, SAGPY ([9]; rate 0.0080 kg/ha): 0.0
- herbicidal rating, SAGPY ([9]; rate 0.0320 kg/ha): 0.0
- herbicidal rating, SAGPY ([9]; rate 0.1250 kg/ha): 8.0
- ORYSAT herbicidal rating ([10]; rate 0.0320 kg/ha): 4.0
- ORYSAT herbicidal rating ([10]; rate 0.0620 kg/ha): 4.5
- Preemergence herbicidal rating CASOB ([11]; Rate 0.0620 kg/ha): 3.0
- Preemergence herbicidal rating CASOB ([11]; Rate 0.1250 kg/ha): 6.5
- Preemergence herbicidal rating CASOB ([11]; Rate 0.2500 kg/ha): 8.0
- Preemergence herbicidal rating AMBEL ([12]; Rate 0.0620 kg/ha): 9.0
- Preemergence herbicidal rating AMBEL ([12]; Rate 0.1250 kg/ha): 9.0
- Preemergence herbicidal rating AMBEL ([12]; Rate 0.2500 kg/ha): 9.0
- Preemergence herbicidal rating CHEAL ([13]; Rate 0.0620 kg/ha): 9.0
- Preemergence herbicidal rating CHEAL ([13]; Rate 0.1250 kg/ha): 9.0
- Preemergence herbicidal rating CHEAL ([13]; Rate 0.2500 kg/ha): 9.0
- Preemergence herbicidal rating ORYSAT ([14]; Rate 0.0620 kg/ha): 8.5
- Preemergence herbicidal rating ORYSAT ([14]; Rate 0.1250 kg/ha): 8.5
- Preemergence herbicidal rating ORYSAT ([14]; Rate 0.2500 kg/ha): 9.0
- herbicidal rating, ECHORC ([15]; rate 0.0080 kg/ha): 5.0
- herbicidal rating, ECHORC ([15]; rate 0.0320 kg/ha): 9.0
- herbicidal rating, ECHORC ([15]; rate 0.1250 kg/ha): 9.0
- ABUTH herbicidal rating ([16]; rate 0.0320 kg/ha): 9.0
- ABUTH herbicidal rating ([16]; rate 0.0620 kg/ha): 9.0
- TRZAWR herbicidal rating ([17]; rate 0.0320 kg/ha): 3.5
- TRZAWR herbicidal rating ([17]; rate 0.0620 kg/ha): 4.5
- IPOHE herbicidal rating ([18]; rate 0.0320 kg/ha): 9.0
- IPOHE herbicidal rating ([18]; rate 0.0620 kg/ha): 9.0

Compound: Cn1c(C(F)(F)F)cc(=O)n(-c2ccc3snc(C4OCC(CO)O4)c3c2)c1=O (stereo not drawn) [Compound 73, 3-[3-[4-(hydroxymethyl)-1,3-dioxolan-2-yl]-1,2-benzisothiazol-5-yl]-1-methyl-6-(trifluoromethyl)uracil]
- ECHCG herbicidal rating ([1]; rate 0.0320 kg/ha): 2.0
- ECHCG herbicidal rating ([1]; rate 0.0620 kg/ha): 3.0
- Preemergence herbicidal rating TRZAWR ([2]; Rate 0.0620 kg/ha): 4.0
- Preemergence herbicidal rating TRZAWR ([2]; Rate 0.1250 kg/ha): 6.0
- Preemergence herbicidal rating TRZAWR ([2]; Rate 0.2500 kg/ha): 8.0
- ZEAMX herbicidal rating ([3]; rate 0.0320 kg/ha): 4.5
- ZEAMX herbicidal rating ([3]; rate 0.0620 kg/ha): 5.0
- CASOB herbicidal rating ([4]; rate 0.0320 kg/ha): 3.0
- CASOB herbicidal rating ([4]; rate 0.0620 kg/ha): 4.0
- AMBEL herbicidal rating ([5]; rate 0.0320 kg/ha): 9.0
- AMBEL herbicidal rating ([5]; rate 0.0620 kg/ha): 9.0
- CHEAL herbicidal rating ([6]; rate 0.0320 kg/ha): 9.0
- CHEAL herbicidal rating ([6]; rate 0.0620 kg/ha): 9.0
- herbicidal rating, ORYSAT (rice tolerance) ([7]; rate 0.0080 kg/ha): 0.0
- herbicidal rating, ORYSAT (rice tolerance) ([7]; rate 0.0320 kg/ha): 0.0
- herbicidal rating, ORYSAT (rice tolerance) ([7]; rate 0.1250 kg/ha): 5.0
- Preemergence herbicidal rating ABUTH ([8]; Rate 0.0620 kg/ha): 9.0
- Preemergence herbicidal rating ABUTH ([8]; Rate 0.1250 kg/ha): 9.0
- Preemergence herbicidal rating ABUTH ([8]; Rate 0.2500 kg/ha): 9.0
- herbicidal rating, SAGPY ([9]; rate 0.0080 kg/ha): 0.0
- herbicidal rating, SAGPY ([9]; rate 0.0320 kg/ha): 0.0
- herbicidal rating, SAGPY ([9]; rate 0.1250 kg/ha): 3.0
- ORYSAT herbicidal rating ([10]; rate 0.0320 kg/ha): 3.0
- ORYSAT herbicidal rating ([10]; rate 0.0620 kg/ha): 4.0
- Preemergence herbicidal rating CASOB ([11]; Rate 0.0620 kg/ha): 2.5
- Preemergence herbicidal rating CASOB ([11]; Rate 0.1250 kg/ha): 6.0
- Preemergence herbicidal rating CASOB ([11]; Rate 0.2500 kg/ha): 8.0
- Preemergence herbicidal rating AMBEL ([12]; Rate 0.0620 kg/ha): 8.5
- Preemergence herbicidal rating AMBEL ([12]; Rate 0.1250 kg/ha): 9.0
- Preemergence herbicidal rating AMBEL ([12]; Rate 0.2500 kg/ha): 9.0
- Preemergence herbicidal rating CHEAL ([13]; Rate 0.0620 kg/ha): 9.0
- Preemergence herbicidal rating CHEAL ([13]; Rate 0.1250 kg/ha): 9.0
- Preemergence herbicidal rating CHEAL ([13]; Rate 0.2500 kg/ha): 9.0
- Preemergence herbicidal rating ORYSAT ([14]; Rate 0.0620 kg/ha): 6.0
- Preemergence herbicidal rating ORYSAT ([14]; Rate 0.1250 kg/ha): 7.0
- Preemergence herbicidal rating ORYSAT ([14]; Rate 0.2500 kg/ha): 8.0
- herbicidal rating, ECHORC ([15]; rate 0.0080 kg/ha): 0.0
- herbicidal rating, ECHORC ([15]; rate 0.0320 kg/ha): 0.0
- herbicidal rating, ECHORC ([15]; rate 0.1250 kg/ha): 7.0
- ABUTH herbicidal rating ([16]; rate 0.0320 kg/ha): 9.0
- ABUTH herbicidal rating ([16]; rate 0.0620 kg/ha): 9.0
- TRZAWR herbicidal rating ([17]; rate 0.0320 kg/ha): 3.5
- TRZAWR herbicidal rating ([17]; rate 0.0620 kg/ha): 4.0
- IPOHE herbicidal rating ([18]; rate 0.0320 kg/ha): 9.0
- IPOHE herbicidal rating ([18]; rate 0.0620 kg/ha): 9.0
